Results from US9988379B2, “GPR40 receptor agonist, methods of preparing the same, and pharmaceutical compositions containing the same as an active agent” (LG CHEM, LTD., priority 2012, dated 2018).

Target: T1, human GPR40 (Homo sapiens, UniProt O14842)
T1 construct: expressed in transfected cells; host or cells: CHO-K1
Experiment: Induction of Ca2+ (calcium flux assay) using human GPR40 expression cell line
Format: cell-based
Settings: read-out: EC0.5
Summary of the method: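 CHO-K1 cells stably transfected with human GPR40, plated 24 h, loaded 1 h at 37° C with Calcium 5 dye in HBSS/HEPES pH 7.4. Intracellular calcium change after compound addition read on FlexStation; concentration–response of relative activity used to derive EC0.5.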

T1 sequence (O14842 whole entry): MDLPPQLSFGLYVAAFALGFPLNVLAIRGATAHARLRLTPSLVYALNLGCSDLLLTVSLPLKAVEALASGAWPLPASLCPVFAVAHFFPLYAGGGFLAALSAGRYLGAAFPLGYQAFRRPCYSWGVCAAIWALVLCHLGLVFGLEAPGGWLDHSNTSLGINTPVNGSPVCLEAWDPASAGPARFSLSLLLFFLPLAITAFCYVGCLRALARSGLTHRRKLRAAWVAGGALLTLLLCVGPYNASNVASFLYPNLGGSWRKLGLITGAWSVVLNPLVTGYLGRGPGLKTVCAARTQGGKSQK

Row | Compound | EC50
1 | CC#C[C@@H](CC(=O)O)c1ccc(OCc2ccc3c(COC)nn(CC(C)C)c3c2)cc1 [Example 188, (S)-3-[4-(1-isobutyl-3-methoxymethyl-1H-indazol-6-ylmethoxy)-phenyl]-hex-4-ynoic acid] | 5 nM
2 | CC#C[C@@H](CC(=O)O)c1ccc(OCc2cccc3c2cnn3C(C)C)cc1 [Example 190, (S)-3-[4-(1-isopropyl-1H-indazol-4-ylmethoxy)-phenyl]-hex-4-ynoic acid] | 40 nM
3 | CC#C[C@@H](CC(=O)O)c1ccc(OCc2ccc3c(COCC)nn(CC(C)C)c3c2)cc1 [Example 191, (S)-3-[4-(3-ethoxymethyl-1-isobutyl-1H-indazol-6-ylmethoxy)-phenyl]-hex-4-ynoic acid] | 10 nM
4 | CC#C[C@@H](CC(=O)O)c1ccc(OCc2cccc3c2c(Cl)nn3CC(C)C)cc1 [Example 192, (S)-3-[4-(3-chloro-1-isobutyl-1H-indazol-4-ylmethoxy)-phenyl]-hex-4-ynoic acid] | 30 nM
5 | CC#C[C@@H](CC(=O)O)c1ccc(OCc2ccc3c(COC(C)C)nn(CC(C)C)c3c2)cc1 [Example 193, (S)-3-[4-(1-isobutyl-3-isopropoxymethyl-1H-indazol-6-ylmethoxy)-phenyl]-hex-4-ynoic acid] | 3 nM
6 | CC#C[C@@H](CC(=O)O)c1ccc(OCc2cccc3c(Br)nn(C)c23)cc1 [Example 195, (S)-3-[4-(3-bromo-1-methyl-1H-indazol-7-ylmethoxy)-phenyl]-hex-4-ynoic acid] | 6 nM
7 | CC#C[C@@H](CC(=O)O)c1ccc(OCc2ccc3c(COC)nn(CC(C)C)c3c2C)cc1 [Example 196, (S)-3-[4-(1-isobutyl-3-methoxymethyl-7-methyl-1H-indazol-6-ylmethoxy)-phenyl]-hex-4-ynoic acid] | 5 nM
8 | CC#C[C@@H](CC(=O)O)c1ccc(OCc2cccc3c2cnn3CC2CC2)cc1 [Example 199, (S)-3-[4-(1-cyclopropylmethyl-1H-indazol-4-ylmethoxy)-phenyl]-hex-4-ynoic acid] | 17 nM
9 | CC#C[C@@H](CC(=O)O)c1ccc(OCc2cccc3c(F)nn(C)c23)cc1 [Example 203, (S)-3-[4-(3-fluoro-1-methyl-1H-indazol-7-ylmethoxy)-phenyl]-hex-4-ynoic acid] | 1 to 50 nM
10 | CC#C[C@@H](CC(=O)O)c1ccc(OCc2cccc3c(CCCC)nn(C)c23)cc1 [Example 206, (S)-3-[4-(3-butyl-1-methyl-1H-indazol-7-ylmethoxy)-phenyl]-hex-4-ynoic acid] | 1 to 50 nM
11 | CC#C[C@@H](CC(=O)O)c1ccc(OCc2cccc3c(CC(C)C)nn(C)c23)cc1 [Example 207, (S)-3-[4-(3-isobutyl-1-methyl-1H-indazol-7-ylmethoxy)-phenyl]-hex-4-ynoic acid] | 1 to 50 nM
12 | CC#C[C@@H](CC(=O)O)c1ccc(OCc2ccc(C)c3c2cnn3CC(C)C)cc1 [Example 208, (S)-3-[4-(1-isobutyl-7-methyl-1H-indazol-4-ylmethoxy)-phenyl]-hex-4-ynoic acid] | 5 nM
13 | CC#C[C@@H](CC(=O)O)c1ccc(OCc2cccc3c(C(C)C)nn(C)c23)cc1 [Example 209, (S)-3-[4-(3-isopropyl-1-methyl-1H-indazol-7-ylmethoxy)-phenyl]-hex-4-ynoic acid] | 1 to 50 nM
14 | CC#C[C@@H](CC(=O)O)c1ccc(OCc2ccc3c(C)nn(CC(C)C)c3c2C)cc1 [Example 212, (S)-3-[4-(1-isobutyl-3,7-dimethyl-1H-indazol-6-ylmethoxy)-phenyl]-hex-4-ynoic acid] | 2 nM
15 | CC#C[C@@H](CC(=O)O)c1ccc(OCc2ccc3c(F)nn(CC)c3c2C)cc1 [Example 214, (S)-3-[4-(1-ethyl-3-fluoro-7-methyl-1H-indazol-6-ylmethoxy)-phenyl]-hex-4-ynoic acid] | 2 nM
16 | CC#C[C@@H](CC(=O)O)c1ccc(OCc2ccc3c(CN4CCOCC4)nn(CC(C)C)c3c2C)cc1 [Example 215, (S)-3-[4-(1-isobutyl-7-methyl-3-morpholin-4-ylmethyl-1H-indazol-6-ylmethoxy)-phenyl]-hex-4-ynoic acid] | 10 nM
17 | CC#C[C@@H](CC(=O)O)c1ccc(OCc2ccc3c(CN4CCOCC4)nn(CC(C)C)c3c2Cl)cc1 [Example 216, (S)-3-[4-(7-chloro-1-isobutyl-3-morpholin-4-ylmethyl-1H-indazol-6-ylmethoxy)-phenyl]-hex-4-ynoic acid] | 6 nM
18 | CC#C[C@@H](CC(=O)O)c1ccc(OCc2ccc3c(CN4CCCC4)nn(CC(C)C)c3c2C)cc1 [Example 217, (S)-3-[4-(1-isobutyl-7-methyl-3-pyrrolidin-1-ylmethyl-1H-indazol-6-ylmethoxy)-phenyl]-hex-4-ynoic acid] | 20 nM
19 | CC#C[C@@H](CC(=O)O)c1ccc(OCc2ccc3c(CN4CCCCC4)nn(CC(C)C)c3c2C)cc1 [Example 218, (S)-3-[4-(1-isobutyl-7-methyl-3-piperidin-1-ylmethyl-1H-indazol-6-ylmethoxy)-phenyl]-hex-4-ynoic acid] | 14 nM
20 | CC#C[C@@H](CC(=O)O)c1ccc(OCc2ccc3cnn(CCC)c3c2C)cc1 [Example 221, (S)-3-[4-(7-methyl-1-propyl-1H-indazol-6-ylmethoxy)-phenyl]-hex-4-ynoic acid] | 5 nM
21 | CC#C[C@@H](CC(=O)O)c1ccc(OCc2ccnc3c2c(F)cn3CC(C)C)cc1 [Example 225, (S)-3-[4-(3-fluoro-1-isobutyl-1H-pyrrolo[2,3-b]pyridin-4-ylmethoxy)-phenyl]-hex-4-ynoic acid] | 13 nM

The remaining lines, values ahead:

Row | EC50 | Compound
22 | 1 to 50 nM | CC#C[C@@H](CC(=O)O)c1ccc(OCc2cccc3c2c(F)nn3CC(C)C)cc1 [Example 189, (S)-3-[4-(3-fluoro-1-isobutyl-1H-indazol-4-ylmethoxy)-phenyl]-hex-4-ynoic acid]
23 | 1 to 50 nM | CC#C[C@@H](CC(=O)O)c1ccc(OCc2cccc3c2c(F)nn3C(C)C)cc1 [Example 194, (S)-3-[4-(3-fluoro-1-isopropyl-1H-indazol-4-ylmethoxy)-phenyl]-hex-4-ynoic acid]
24 | 5 nM | CC#C[C@@H](CC(=O)O)c1ccc(OCc2cccc3c2cnn3CCCC)cc1 [Example 197, (S)-3-[4-(1-butyl-1H-indazol-4-ylmethoxy)-phenyl]-hex-4-ynoic acid]
25 | 16 nM | CC#C[C@@H](CC(=O)O)c1ccc(OCc2cccc3c2c(F)nn3CCCC)cc1 [Example 198, (S)-3-[4-(1-butyl-3-fluoro-1H-indazol-4-ylmethoxy)-phenyl]-hex-4-ynoic acid]
26 | 9 nM | CC#C[C@@H](CC(=O)O)c1ccc(OCc2cccc3c2c(F)nn3CC2CC2)cc1 [Example 200, (S)-3-[4-(1-cyclopropylmethyl-3-fluoro-1H-indazol-4-ylmethoxy)-phenyl]-hex-4-ynoic acid]
27 | 10 nM | CC#C[C@@H](CC(=O)O)c1ccc(OCc2cccc3c(Cl)nn(C)c23)cc1 [Example 201, (S)-3-[4-(3-chloro-1-methyl-1H-indazol-7-ylmethoxy)-methyl]-hex-4-ynoic acid]
28 | 8 nM | CC#C[C@@H](CC(=O)O)c1ccc(OCc2ccc3c(Cn4cccn4)nn(C(C)C)c3c2)cc1 [Example 202, (S)-3-[4-(1-isopropyl-3-pyrazol-1-ylmethyl-1H-indazol-6-ylmethoxy)-phenyl]-hex-4-ynoic acid]
29 | 9 nM | CC#C[C@@H](CC(=O)O)c1ccc(OCc2ccnc3c2ccn3CC(C)C)cc1 [Example 204, (S)-3-[4-(1-isobutyl-1H-pyrrolo[2,3-b]pyridin-4-ylmethoxy)-phenyl]-hex-4-ynoic acid]
30 | 16 nM | CC#C[C@@H](CC(=O)O)c1ccc(OCc2cccc3c2c(C)nn3CCCC)cc1 [Example 205, (S)-3-[4-(1-butyl-3-methyl-1H-indazol-4-ylmethoxy)-phenyl]-hex-4-ynoic acid]
31 | 8 nM | CC#C[C@@H](CC(=O)O)c1ccc(OCc2cccc3c(CCC)nn(C)c23)cc1 [Example 210, (S)-3-[4-(1-methyl-3-propyl-1H-indazol-7-ylmethoxy)-phenyl]-hex-4-ynoic acid]
32 | 4 nM | CC#C[C@@H](CC(=O)O)c1ccc(OCc2ccc3cnn(CC(C)C)c3c2C)cc1 [Example 211, (S)-3-[4-(1-isobutyl-7-methyl-1H-indazol-6-ylmethoxy)-phenyl]-hex-4-ynoic acid]
33 | 1 to 50 nM | CC#C[C@@H](CC(=O)O)c1ccc(OCc2ccc(C)c3c2c(F)nn3CC(C)C)cc1 [Example 213, (S)-3-[4-(3-fluoro-1-isobutyl-7-methyl-1H-indazol-4-ylmethoxy)-phenyl]-hex-4-ynoic acid]
34 | 23 nM | CC#C[C@@H](CC(=O)O)c1ccc(OCc2ccc3c(CN4CCOCC4)nn(CC(C)C)c3c2)cc1 [Example 219, (S)-3-[4-(1-isobutyl-3-morpholin-4-ylmethyl-1H-indazol-6-ylmethoxy)-phenyl]-hex-4-ynoic acid]
35 | 3 nM | CC#C[C@@H](CC(=O)O)c1ccc(OCc2ccc3cnn(C(C)C)c3c2C)cc1 [Example 220, (S)-3-[4-(1-isopropyl-7-methyl-1H-indazol-6-ylmethoxy)-phenyl]-hex-4-ynoic acid]
36 | 5 nM | CC#C[C@@H](CC(=O)O)c1ccc(OCc2ccc3c(CF)nn(CC(C)C)c3c2C)cc1 [Example 222, (S)-3-[4-(3-fluoromethyl-1-isobutyl-7-methyl-1H-indazol-6-ylmethoxy)-phenyl]-hex-4-ynoic acid]
37 | 11 nM | CC#C[C@@H](CC(=O)O)c1ccc(OCc2ccc(C)c3c2cnn3C(C)C)cc1 [Example 223, (S)-3-[4-(1-isopropyl-7-methyl-1H-indazol-4-ylmethoxy)-phenyl]-hex-4-ynoic acid]
38 | 27 nM | CC#C[C@@H](CC(=O)O)c1ccc(OCc2ccnc3c2ccn3C(C)C)cc1 [Example 224, (S)-3-[4-(1-isopropyl-1H-pyrrolo[2,3-b]pyridin-4-ylmethoxy)-phenyl]-hex-4-ynoic acid]
39 | 9 nM | CC#C[C@@H](CC(=O)O)c1ccc(OCc2ccc3cnn(Cc4cccnc4)c3c2C)cc1 [Example 226, (S)-3-[4-(7-methyl-1-pyridin-3-ylmethyl-1H-indazol-6-ylmethoxy)-phenyl]-hex-4-ynoic acid]
